Experimental data from patent US9029147B2, “Methods and compositions for enhanced differentiation from embryonic stem cells” (Massachusetts Institute of Technology, priority 2007, dated 2015).
Where “and” joins values, the source holds several entries; their conditions need not be identical. Equal values may be shown once.

Columns and labels:
Type in all cases: cell-based, mouse
mES cells [1] = assay: Adhesion of mES cells to polystyrene and silicone rubber, native or with adsorbed gelatin or fibronectin; conditions: after a day in culture
Method: FIG. 23. Adhesion of ES cells to polystyrene and silicone rubber. Adhesion of mES cells to polystyrene and silicone rubber in their native states or with 0.1% gelatin in water or […] fibronectin in PBS adsorbed onto the surface for 24 hr prior to cell addition. Below each pair of micrographs is quantitative data for the total, attached, and suspension cell numbers. Results shown are mean±SD for three wells in a 24 well plate seeded with 2×10^5 cell 26 hr prior to performing the cell counts.
PSS solution (polyanion) was added to an untreated plate and incubated for 1 hr, followed by a 10 min wash with DPBS, a 1 hr incubation with PEI (polycation), and a 10 min wash with DPBS. Two additional incubations with both PSS and PEI (30 min each) with intervening washes (10 min) were done to build a (PSS-PEI)3 PEM. To this PEM an additional 3 layers each of type B gelatin (polyanion) and PDL (polycation) were formed, using 30 min incubations with the polyelectrolyte solution, and 10 min washes with DPBS. The final PEM structure was thus (PSS-PEI)3-(type B gelatin—PDL)3. […] Attached nuclei were counted by adding 0.5 ml of lysis solution to the well and incubating for 10 min. […] The membrane-intact cell concentration was determined using trypan blue cell counts, and cells were diluted to a concentration of 25,000 membrane intact cells/ml. […]

mES cells [2] = assay: Cardiomyocyte generation with 0 or 0.2 mM ascorbic acid, MF-20 immunostaining counted by flow cytometer; conditions: 10 days
Method: Low Oxygen and Ascorbic Acid Act Synergistically to Promote Cardiomyocyte Generation. mES cells were differentiated for 10 days at 142, 36, and 7 mmHg pO2 and with either 0 or 0.2 mM ascorbic acid. Cardiomyocyte generation was measured by counting fixed cells immunostained for sacromeric myosin heavy chain using the MF-20 with a flow cytometer. […] (FIGS. 10 and 11.).

J1 mES cells = assay: Fraction of MF-20 positive cells (cardiomyocytes) by flow cytometry, alternate differentiation protocol
Text: (§1) • Undifferentiated ES cell culture. J1 and R1 ES cells were obtained from ATCC (SCRC 1010, SCRC 1036, Manassaas, Va.), expanded on Mitomycin-C treated MEF cells, and frozen into vials following ATCC protocols. Vials were thawed into undifferentiated ES cell maintenance medium (described in Table 1) containing supplemental leukaemia inhibitory factor (LIF) and plated at a density of about 5×10^4 cell/cm^2 on 25 cm^2 cell culture flasks (353109, Becton Dickinson, Franklin Lakes, N.J.) that were treated for 30 min with a sterile 0.1% (w/v) solution of gelatine (G-2500, Sigma-Aldrich, St. Louis, Mo.) in tissue culture water (WFI, 25-055-CM, Mediatech, Herndon, Va.). Medium (Table 1) was exchanged daily, and cells were detached with 0.25% trypsin (30-2101, ATCC) every two days. Split fractions were chosen so that cells were plated at approximately 1.2^[…] cells/cm^2. Cells were used for differentiation experiments 4-6 days after thawing the cell vials. • EB formation. […] The concentration of cells with intact membranes was determined using trypan blue cell counts, and cells were diluted to a concentration of 2.5×10^4 membrane-intact cells/ml. […] of this cell suspension were aliquoted onto the inside surface of the lids of 10×10 cm Petri dishes (351112, Becton Dickinson) using an 8-channel pipette. The lids were inverted and placed onto the bottoms of the dishes, which were filled with 15 ml of a pre-warmed (37° C.) solution containing 75% (v/v) Dulbecco's phosphate buffered saline (DPBS, 21-030-CM, Mediatech), 25% water, and 0.002% (w/v) gelatine. • EB transfer. […], the resulting EBs were manually pipetted off of the Petri dish lid using wide-orifice pipette tips (3532, Molecular BioProducts, San Diego, Calif.) and placed into the wells of custom-made 24-well culture dish, which had the plastic bottom replaced with fibronectin-coated silicone rubber membrane. 30 EBs were placed into each well, and the medium was mixed by pipetting to distribute the EBs uniformly across the plate bottom. • Culture of attached EBs. The EBs attached and spread within one day of transfer to the silicone rubber membrane-based dish. The medium was removed from all of the wells 2 days after EB transfer and was replaced with 1 ml of fresh ES cell differentiation medium. On the following day, the medium was removed and replaced with 1 ml serum-free differentiation medium (Table 2). Medium continued to be exchanged daily with the serum-free differentiation medium until the end of the experiment. • Cell collection for nuclei counting and flow cytometry. […]

R1 ES cells = assay: as above; conditions: With 0.2 mM ascorbic acid
Text: as §1

| Molecule | Fraction of cells attached (mES cells [1]) [%] | Effect on cardiomyocyte generation in combination with low pO2 (mES cells [2]; 0.2 mM combined with 36 mmHg pO2) | Effect on cardiomyocyte generation (mES cells [2]; 0.2 mM vs 0 mM, at all pO2 (142, 36, 7 mmHg)) | Fraction of MF-20 positive cells (J1 mES cells; With 0.2 mM ascorbic acid, pO2gas 36, J1, 4 days hanging drop EBs then 7 days serum free ITS medium) | Change in fraction of cardiomyocytes when ascorbic acid was included in the culture medium (J1 mES cells; all of the oxygen conditions tested, P=0.0005, J1 and R1 experiments of Table 4) | Fraction of MF-20 positive cells (R1 ES cells; pO2gas 7, 4 days hanging drop EBs then 7 days serum free ITS medium) | Fraction of MF-20 positive cells (R1 ES cells; pO2gas 36, 4 days hanging drop EBs then 7 days serum free ITS medium) |
| --- | --- | --- | --- | --- | --- | --- | --- |
| fibronectin: protein adsorbed onto silicone rubber to promote cell adhesion (F1141, Sigma-Aldrich) | 99 |  |  |  |  |  |  |
| O=C1O[C@H]([C@@H](O)CO)C(O)=C1O [Ascorbic Acid, L-ascorbic acid] |  | a larger increase in cardiomyocytes than with either method alone | increased cardiomyocyte generation | 18 and 25 and 16 | highly significant increase | 4 | 22 |
